Laboratory results: US12427148B2, “Cancer treatment targeted to tumor adaptive responses to protein synthesis stress” (priority 2018, dated 2025)

Assays:
mPCa-PDX tumor = experiment: Preclinical trial in patient-derived xenograft from lymph node metastasis; format: in vivo, mouse
Description: (§1) FIGS. 5A, 5B, 5C, 5D, 5E, 5F, and 5G. FIGS. 5A, 5B, and 5C depict quantification of protein expression as relative mean IF intensity normalized to adjacent stromal tissue for: FIG. 5A: benign, FIG. 5B PCa, and mPCa cell types. FIG. 5D and FIG. 5E depict Kaplan-Meier tumor survival curves for mice bearing pPCa (5D) or mPCa (5E) tumors treated with ISRIB (10 mg/kg) or vehicle (n=8, per cohort; **P=0.01, log-rank test). […] FIG. 5F depicts quantification of PDX tumors treated with vehicle or ISRIB (10 mg/kg); (n=3, ***P<0.001, t test). FIG. 5G depicts quantification of newly synthesized proteins in vivo, assessed by incorporation of OP-Puro within PDX treated with ISRIB (10 mg/kg) or vehicle (n=3 to 4 per arm, mean±SEM; *P<0.05, t test). n.s., not significant. MFI, mean fluorescence intensity.
(§2) Next, it was sought to functionally evaluate whether the UPR pathway could be targeted, specifically through P-eIF2α, in advanced human PCa. Although it is historically difficult to generate human prostate patient-derived xenograft (PDX) models, this was successfully achieved with similar characteristics to the Pten^fl/fl;Myc^Tg mice to assess the effects of ISRIB on cancer growth and mortality. In particular, two PDX models were generated: one derived from a primary tumor, herein referred to as pPCa, and one derived from a lymph node metastasis in the left internal iliac chain from the same patient, herein referred to as mPCa. […] A significant increase in P-eIF2α was observed only in the mPCa (P<0.01).
(§3) To test the therapeutic efficacy of ISRIB in human PCa, a preclinical trial was performed on the stably passaged PDX model.

[1] = tested on: Pten^fl/fl;Myc^Tg mice prostate tumors; experiment: Preclinical trial in mice with developed prostate tumors, MRI prostate volume; format: in vivo
Description: (§4) To evaluate the necessity of P-eIF2α for promoting tumor growth or maintenance in vivo, a preclinical trial was conducted. Mice with developed tumors were imaged by magnetic resonance imaging (MRI) to confirm a measurable baseline of prostate volume per mouse and then grouped into cohorts for either vehicle or ISRIB treatment daily over the course of 6 weeks.

[2] = tested on: Pten^fl/fl mice prostate tumors; experiment: as above; format: in vivo, mouse
Description: as §4

pPCa tumors = experiment: Newly synthesized proteins in vivo by OP-Puro incorporation in PDX; parameters: species or system mouse; conditions: ISRIB 10 mg/kg
Description: as §1
(§5) Next, it was determined whether a metastatic PCa tumor, harboring high MYC and loss of PTEN activity in a complex genetic background of human PCa, relies on eIF2α phosphorylation as an adaptive response to restrain global protein synthesis. Therefore, newly synthesized proteins in vivo were assessed by measuring the incorporation of O-propargyl-puromycin (OP-Puro) within the primary and metastatic tumor-derived PDXs, which have low or high P-eIF2α, respectively. […] Within the area of intratumor ATF4 loss, apoptosis and decreased proliferation assessed by TUNEL and Ki67 staining of mPCa PDX was observed.

mPCa PDX = experiment: as above; parameters: species or system mouse; conditions: ISRIB 10 mg/kg
Description: as §1, §5

[3] = tested on: Pten^fl/fl organoid cultures; experiment: 35S methionine incorporation (newly synthesized proteins) and ATF4 expression in organoid cultures; format: cell-based, mouse; conditions: ISRIB treatment
Description: (§6) To evaluate the effects of these key oncogenes on global protein synthesis, newly synthesized proteins were assessed by incorporation of ^35S-labeled methionine in organoid cultures. Primary mouse three-dimensional organoid cultures were established to recapitulate the cellular environment of the murine prostate gland ex vivo. Organoids were derived from dissociated mouse prostate tissue containing a mixed population of luminal and basal cell types to mimic the histology observed in vivo. Western blot analysis confirmed that Myc^Tg expression and PTEN loss were evident and associated with increased GFP expression and AKT phosphorylation. […] On the contrary, it was observed that an unanticipated but significant dampening in global protein synthesis occurred in Ptenfl/fl;MycTg mice (P=0.01), despite the fact that these mice developed more aggressive PCa (FIG. 1D).
(§7) A general UPR response may promote adaptation to proteotoxic and ER stress, whereas the activation of P-eIF2α could place a direct brake on the overwhelming burden of protein synthesis that occurs during more aggressive tumorigenesis. To test this hypothesis, the organoid cultures were employed, which recapitulate the in vivo phenotype. […]

[4] = tested on: Pten^fl/fl;Myc^Tg organoid cultures; experiment: 35S methionine incorporation (newly synthesized proteins) in organoid cultures; format: cell-based, mouse; conditions: Pten^fl/fl;Myc^Tg cells, ISRIB treatment
Description: as §6, §7

PERK = PERK inhibitor as described; cited from earlier work
[5] = tested on: RWPE-1 shPTEN;MYC^OE cells; experiment: Apoptosis (annexin V-positive cells by flow cytometry) in engineered human prostate epithelial cells; format: cell-based; conditions: 500 nM ISRIB for 9 hours, shPTEN;MYC^OE cells relative to control samples
Description: FIGS. 4A and 4B. FIG. 4A depicts quantification of annexin V-positive cells analyzed by flow cytometry relative to control cells after treatment with DMSO or 500 nM ISRIB for 9 hours (n=3, mean±SEM) *P<0.05, t test. FIG. 4B depicts Cox proportional hazards regression results in a Forest plot of hazard ratios and 95% CI for factors associated with risk of clinical progression after surgery. Independent factors are tumor with PTEN loss/low P-eIF2α or PTEN loss/high P-eIF2α versus a reference group with normal PTEN expression; age in years; PSA in nanograms per milliliter; Gleason score>7 versus 6; and pathological stage T3-T4 versus T2 at the time of prostatectomy.
To extend these observations directly to human disease, human cell lines were created to mimic the genetic mouse models. Human RWPE-1 epithelial cells were created to stably knock down PTEN (shPTEN) with or without MYC overexpression. The combination of PTEN loss with increased MYC expression activated PERK signaling and P-eIF2α, showing that the adaptive response that we had observed in mice is also triggered in human prostate cells.

mCRPC PDX = experiment: Metastatic castration-resistant PCa PDX, survival and PSMA PET/CT imaging; format: in vivo, mouse
Excerpt: In hormone-sensitive metastatic PCa, androgen deprivation therapy (ADT) remains the mainstay treatment; however, these tumors inevitably develop resistance to ADT and progress into the lethal form of metastatic castration-resistant PCa (mCRPC). Characterization of the hormone-sensitive metastatic disease has not been predictive of outcomes in the clinical setting of lethal mCRPC. To directly study the contribution of P-eIF2α to metastasis, an additional PDX (herein mCRPC PDX) was generated derived from a patient with mCRPC despite prolonged treatment with complete androgen blockage using leuprolide (ADT) and antiandrogen therapy (enzalutamide). Three weeks after implantation of the mCRPC tumor under the mouse renal capsule, tumor dissemination to the liver, distant kidney, lymph nodes, and spleen was observed.
To examine the role of P-eIF2α from the early stages of metastatic growth to late stages of dissemination, a prostate-specific membrane antigen [^68Ga-PSMA-11 PET/computed tomography (CT)] scan was used to trace the progression of very small metastases from early to late stages of dissemination, which were not visible by conventional imaging modalities such as ^18F-DG PET/CT. Prostate-specific membrane antigen (PSMA) is highly expressed on the surface of PCa cells and allows sensitive staging to evaluate therapy response in the clinical setting. […]

pPCa-PDX tumor = experiment: Preclinical trial in patient-derived xenograft from primary tumor; format: in vivo, mouse
Description: as §1, §2, §3

[6] = pPCa-PDX, low P-eIF2α, ISRIB treatment

O=C(COc1ccc(Cl)cc1)NC1CCC(NC(=O)COc2ccc(Cl)cc2)CC1 (stereo not drawn) [ISRIB]
cell death: TUNEL staining and cleaved caspase 3 expression (mPCa-PDX tumor; mPCa-PDX, after 9 days of ISRIB treatment): increased
tumor size (mPCa-PDX tumor; mPCa-PDX, after 9 days of ISRIB treatment, P<0.01): significant tumor regression
survival (mPCa-PDX tumor; mice bearing metastatic tumor with high P-eIF2α, ISRIB 10 mg/kg, P<0.01): significantly prolonged survival
tumor size by MRI ([1]; ISRIB-treated Pten^fl/fl;Myc^Tg mice, by 6 weeks): no progression in tumor size
toxicity ([1]; Pten^fl/fl;Myc^Tg mice, daily ISRIB treatment): no signs of toxicity
tumor size by MRI ([1]; Pten^fl/fl;Myc^Tg mice, daily ISRIB, 3 weeks): tumor regression within 3 weeks
immune cell infiltration (CD45) ([1]; after 3 weeks of ISRIB treatment, regardless of prostate tumor genotype): no significant changes
increase in growth over individual baseline measurements ([2]; by 6 weeks): ~40%
tumor size by MRI ([2]; vehicle or daily ISRIB, 3 weeks): continued tumor growth
global protein synthesis (OP-Puro incorporation) (pPCa tumors): no change
global protein synthesis (OP-Puro incorporation) (mPCa PDX): marked increase
ATF4 expression [3]: decrease
protein synthesis (newly synthesized proteins) [3]: not altered
newly synthesized proteins [4]: marked increase
IC50 (PERK): 5 nM
apoptosis (annexin V-positive cells) [5]: marked increase in apoptosis
survival (mCRPC PDX; mCRPC PDX mice bearing distal metastatic lesions, P=0.01): significantly prolonged survival
metastases at distal sites by PSMA PET/CT (mCRPC PDX; mCRPC PDX mice treated with ISRIB): substantial metastatic regression
effectiveness of ISRIB treatment (survival) (pPCa-PDX tumor; pPCa tumor, ISRIB 10 mg/kg): short-lived
cell death (pPCa-PDX tumor; [6]): no significant cell death
tumor size (pPCa-PDX tumor; [6]): did not show regression but stabilized with eventual tumor regrowth
